Measured values taken from US10597405B2, “Chemical compounds” (ASTRAZENECA AB, priority 2017, dated 2020).

Experiments:
KRasG12C [1] = target: T1, KRasG12C (Homo sapiens, UniProt P01116, G12C); assay: KRasG12C functional assay (HTRF nucleotide exchange / Raf RBD binding); type: biochemical; conditions: GDP loaded biotinylated KRasG12C, samples incubated 4 hrs, FRET readout; single experiment or average of two or more
T1 construct: biotin (biotinylated); made in house
Experimental: KRasG12C Functional Assay
All enzyme and substrate solutions were prepared in assay buffer containing 20 mM HEPES (pH 7.5), 5 mM MgCl2, 150 mM NaCl, and 0.01% Tween 20. […] In a separate mix 20 nM GST-Raf Ras binding domain (GST-Raf RBD, purified in house) and 4 μg/ml anti-GST XL665 antibody (Cisbio) was prepared in assay buffer containing 50 mM Potassium Fluoride and 0.05 mg/ml BSA and equilibrated for 4 hours before adding 0.6 μM Guanosine 5′-[γ-thio]triphosphate (GTPγS, Sigma) and 0.08 μM SOS (purified in house). 5 μl of the GST-RAF RBD mix was then dispensed into each well of the assay plate. […] This is detected simultaneously via the specific binding interaction between active GTPγS KRas^G12C with GST-Raf RBD which brings the europium and XL665 into close proximity enabling an increased FRET signal to be detected on a Pherastar (BMG) plate reader equipped with the HTRF filter module. […] IC50 values were calculated from normalised dose-response response FRET data curve fitted in Genedata screener (Basel, Switzerland).

KRasG12C [2] = target: T1, KRasG12C; assay: KRasG12C Mass Spectrometry adducting assay; type: binding; conditions: 10 μM test compound, 4 μM KRasG12C, 4 hours reaction; single experiment or average of two or more
Experimental: KRasG12C Mass Spectrometry Adducting Assay
Enzyme solutions were prepared in assay buffer containing 20 mM HEPES (pH 7.5), 5 mM MgCl2, and 150 mM NaCl. 4 μM GDP loaded biotinylated KRas^G12C was prepared in assay buffer and 50 μl added into each well of a 96 well polypropylene assay plate (Greiner, #651201) containing 500 nl of 1 mM test compounds (final concentration 10 μM), this was allowed to react for 4 hours before the addition of 50 μl 1% Formic acid to quench the reaction. The plate was sealed before reading on a Xevo G2 QTOF (Waters) and Acquity LC system (Waters). 10 μl of sample was injected onto a Xbridge BEH300; C4; 3.5 um; 2.1×50 mm column (Waters) running a 3 minute gradient. Blank samples were run in between each test sample.
Data was analysed in Mass Lynx software (Waters), the Total ion count (TIC) trace was used and the eluted protein peak data combined. Using the combined spectrum the data was deconvoluted using MaxEnt1 method. The peak area for apo-protein KRas^G12C (APO) and KRAS+relative cmpd mass (adduct) were measured, and a percentage adduct was calculated using the following calculation: Percent adduct=100*(area of adduct peak/(sum of APO+adduct peaks)

| IC50 (KRasG12C [1]) [nM] | KRasG12C M.S. Binding Mean adduct % (KRasG12C [2]) [%] | SMILES |
| --- | --- | --- |
| 630 | 51 | C=CC(=O)N1CCN2c3c(cnc4c(F)c(-c5c(O)cccc5F)c(Cl)cc34)N(C)C(=O)C2C1 (single isomer, unassigned) [Example 20, 3-acryloyl-11-chloro-9-fluoro-10-(2-fluoro-6-hydroxyphenyl)-6-methyl-2,3,4,4a-tetrahydro-1H-pyrazino[1′,2′:4,5]pyrazino[2,3-c]quinolin-5(6H)-one] |
| 47 | 95 | C=CC(=O)N1CCN2c3c(cnc4c(F)c(-c5c(C)ccc6[nH]ncc56)c(Cl)cc34)N(C)C(=O)[C@H]2C1 (single isomer, unassigned) [Compound 49] |
| 3500 | 3 | C=CC(=O)N1CCN2c3c(cnc4c(F)c(-c5c(O)cccc5F)c(Cl)cc34)N(C)C(=O)C2C1 (single isomer, unassigned) [Example 18, 3-acryloyl-11-chloro-9-fluoro-10-(2-fluoro-6-hydroxyphenyl)-6-methyl-2,3,4,4a-tetrahydro-1H-pyrazino[1′,2′:4,5]pyrazino[2,3-c]quinolin-5(6H)-one] |
| 20 | 95 | C=CC(=O)N1CCN2c3c(cnc4c(F)c(-c5c(O)cccc5F)c(Cl)cc34)OC[C@H]2C1 (single isomer, unassigned) [Example 7] |
| 132 | 91 | C=CC(=O)N1CCN2c3c(cnc4cc(-c5c(O)cccc5F)c(Cl)cc34)N(C)C[C@H]2C1 [Example 14, 1-((4aS)-11-chloro-10-(2-fluoro-6-hydroxyphenyl)-6-methyl-1,2,4,4a,5,6-hexahydro-3H-pyrazino[1′,2′:4,5]pyrazino[2,3-c]quinolin-3-yl)prop-2-en-1-one] |
| 654 | 25 | C=CC(=O)N1CCN2c3c(cnc4cc(-c5c(C)ccc6[nH]cnc56)c(Cl)cc34)OC[C@H]2C1 (single isomer, unassigned) [Compound 66] |
| 82 | 97 | C=CC(=O)N1CCN2c3c(cnc4c(C)c(-c5c(O)cccc5F)c(C)nc34)N(C)C(=O)[C@H]2C1 (single isomer, unassigned) [Compound 92] |
| 2700 | 18 | C=CC(=O)N1CCN2c3c(cnc4cc(-c5c(O)cccc5F)c(Cl)cc34)N(C)C(=O)[C@@H]2C1 [Example 16, (4aS)-3-Acryloyl-11-chloro-10-(2-fluoro-6-hydroxyphenyl)-6-methyl-2,3,4,4a-tetrahydro-1H-pyrazino[1′,2′:4,5]pyrazino[2,3-c]quinolin-5(6H)-one] |
| 135 | 81 | C=CC(=O)N1CCN2c3c(nnc4cc(-c5c(O)cccc5F)c(Cl)cc34)OC[C@H]2C1 [Example 10, 1-((4aR)-11-Chloro-10-(2-fluoro-6-hydroxyphenyl)-1,2,4a,5-tetrahydropyrazino[1′,2′:4,5][1,4]oxazino[2,3-c]cinnolin-3(4H)-yl)prop-2-en-1-one] |
| 9800 | – | C=CC(=O)N1CCN2c3c(cnc4c(F)c(-c5c(F)cccc5CO)c(Cl)cc34)N(C)C(=O)[C@H]2C1 (single isomer, unassigned) [Compound 34] |
| 662 | – | C=CC(=O)N1CCN2c3c(cnc4cc(-c5c(C)ccc6[nH]ncc56)c(Cl)cc34)OC[C@@H]2C1 (single isomer, unassigned) [Example 6] |
| 20 | – | C=CC(=O)N1CCN2c3c(cnc4c(F)c(-c5c(O)ccc(F)c5F)c(Cl)cc34)N(C)C(=O)[C@H]2C1 (single isomer, unassigned) [Compound 58] |
| 1500 | – | C=CC(=O)N1C[C@@H]2COc3cnc4c(C)c(-c5c(O)cccc5F)c(Cl)cc4c3N2C[C@H]1C (single isomer, unassigned) [Compound 41] |
| 3600 | – | C=CC(=O)N1CCN2c3c(cnc4c(F)c(-c5c(C)ccc6[nH]c(=O)oc56)c(Cl)cc34)OC[C@H]2C1 (single isomer, unassigned) [Compound 48] |
| 1100 | – | C=CC(=O)N1CCN2c3c(cnc4cc(-c5c(F)ccc6cc[nH]c(=O)c56)c(Cl)cc34)OC[C@H]2C1 (single isomer, unassigned) [Compound 46] |

The remaining lines, values behind:

| SMILES | IC50 (KRasG12C [1]) [nM] | KRasG12C M.S. Binding Mean adduct % (KRasG12C [2]) [%] |
| --- | --- | --- |
| C=CC(=O)N1CCN2c3c(cnc4cc(-c5c(C)ccc6[nH]c(=O)n(C)c56)c(Cl)cc34)OC[C@H]2C1 (single isomer, unassigned) [Compound 67] | 47 | 97 |
| C=CC(=O)N1CCN2c3c(cnc4cc(-c5c(C)ccc6cc[nH]c(=O)c56)c(Cl)cc34)OC[C@H]2C1 (single isomer, unassigned) [Compound 69] | 2700 | 12 |
| C=CC(=O)N1CCN2c3c(cnc4cc(-c5c(O)cccc5F)c(Cl)cc34)OC[C@H]2C1 (single isomer, unassigned) [Example 1] | 186 | 96 |
| C=CC(=O)N1CCN2c3c(cnc4cc(-c5c(O)cccc5F)c(Cl)cc34)N(C)C(=O)C2(C)C1 (single isomer, unassigned) [Compound 33, 11-Chloro-10-(2-fluoro-6-hydroxyphenyl)-4a,6-dimethyl-3-(prop-2-enoyl)-2,3,4,4a-tetrahydro-1H-pyrazino[1′,2′:4,5]pyrazino[2,3-c]quinolin-5(6H)-one] | 745 | 87 |
| C=CC(=O)N1CCN2c3c(cnc4c(F)c(-c5c(O)cccc5F)c(Cl)cc34)N(C)C(=O)C2C1 (single isomer, unassigned) [Example 19, 3-acryloyl-11-chloro-9-fluoro-10-(2-fluoro-6-hydroxyphenyl)-6-methyl-2,3,4,4a-tetrahydro-1H-pyrazino[1′,2′:4,5]pyrazino[2,3-c]quinolin-5(6H)-one] | > 9200 | 3 |
| C=CC(=O)N1CCN2c3c(cnc4cc(-c5c(O)cccc5F)c(Cl)cc34)N(C)C(=O)[C@H]2C1 [Example 15, (4aR)-3-Acryloyl-11-chloro-10-(2-fluoro-6-hydroxyphenyl)-6-methyl-2,3,4,4a-tetrahydro-1H-pyrazino[1′,2′:4,5]pyrazino[2,3-c]quinolin-5(6H)-one] | 145 | 100 |
| C=CC(=O)N1CCN2c3c(cnc4cc(-c5c(O)cccc5F)c(Cl)cc34)NC[C@H]2C1 [Example 13, 1-((4aS)-11-Chloro-10-(2-fluoro-6-hydroxyphenyl)-1,2,4,4a,5,6-hexahydro-3H-pyrazino[1′,2′:4,5]pyrazino[2,3-c]quinolin-3-yl)prop-2-en-1-one] | 387 | 86 |
| C=CC(=O)N1CCN2c3c(cnc4c(F)c(-c5c(O)cccc5F)c(Cl)cc34)NC(=O)[C@H]2C1 (single isomer, unassigned) [Compound 88] | 14 | 96 |
| C=CC(=O)N1C[C@@H]2COc3cnc4cc(-c5c(O)cccc5F)c(Cl)cc4c3N2C[C@H]1C [Example 11, 1-[(2R,4aR)-11-Chloro-10-(2-fluoro-6-hydroxyphenyl)-2-methyl-1,2,4a,5-tetrahydropyrazino[1′,2′:4,5][1,4]oxazino[2,3-c]quinolin-3(4H)-yl]prop-2-en-1-one] | 47 | 93 |
| C=CC(=O)N1CCN2c3c(cnc4cc(-c5c(C)ccc6[nH]ncc56)c(Cl)cc34)OC[C@H]2C1 (single isomer, unassigned) [Example 3] | 81 | 93 |
| C=CC(=O)N1CCN2c3c(cnc4cc(-c5c(C)ccc6cc[nH]c(=O)c56)c(Cl)cc34)OC[C@H]2C1 (single isomer, unassigned) [Compound 70] | 49 | 94 |
| C[C@@H]1CN2c3c(cnc4c(F)c(-c5c(O)cccc5F)c(Cl)cc34)OC[C@H]2CN1C(=O)/C=C/CN(C)C (single isomer, unassigned) [Compound 37] | 21 | – |
| C=CC(=O)N1CCN2c3c(cnc4c(F)c(-c5c(O)cccc5C(F)F)c(Cl)cc34)N(C)C(=O)[C@H]2C1 (single isomer, unassigned) [Compound 61] | 38700 | – |
| C=CC(=O)N1CCN2c3c(cnc4cc(-c5c(O)cccc5F)c(Cl)cc34)OC[C@H]2C1 (single isomer, unassigned) [Mixture of 1 & 2] | 211 | – |
| C=CC(=O)N1CCN2c3c(cnc4c(F)c(-c5c(C)ccc6[nH]cnc56)c(Cl)cc34)N(C)C(=O)[C@H]2C1 (single isomer, unassigned) [Compound 26] | 446 | – |
